Among the data in ChEMBL document CHEMBL5226328, “Rational Multitargeted Drug Design Strategy from the Perspective of a Medicinal Chemist” (J Med Chem, 2021) are IC50 and Ki values, retold here.

Assay [1] addresses Amyloid-beta precursor protein (Homo sapiens, UniProt P05067).
Description: Inhibition of amyloid beta (1 to 42 ) (unknown origin) self aggregation
The target in a further assay is T1, Vitamin D3 receptor (Homo sapiens, UniProt P11473).
T1 sequence (P11473 whole entry): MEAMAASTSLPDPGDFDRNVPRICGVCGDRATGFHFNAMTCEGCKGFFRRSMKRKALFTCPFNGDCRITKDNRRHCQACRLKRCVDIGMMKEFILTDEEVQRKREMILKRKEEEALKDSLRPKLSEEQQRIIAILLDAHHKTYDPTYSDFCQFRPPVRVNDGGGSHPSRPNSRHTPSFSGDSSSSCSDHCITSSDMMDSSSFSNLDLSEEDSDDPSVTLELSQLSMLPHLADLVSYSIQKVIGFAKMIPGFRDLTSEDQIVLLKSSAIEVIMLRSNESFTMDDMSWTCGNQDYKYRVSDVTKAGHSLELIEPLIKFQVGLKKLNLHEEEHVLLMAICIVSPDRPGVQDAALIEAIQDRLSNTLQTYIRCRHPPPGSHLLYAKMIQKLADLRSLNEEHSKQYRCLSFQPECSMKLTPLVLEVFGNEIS

The target in assay [2] is Sodium-dependent serotonin transporter (Homo sapiens, UniProt P31645).
Description: Inhibition of SERT (unknown origin)
In the next assay the target is Acetylcholinesterase (Homo sapiens, UniProt P22303).
In assay [3] the target is Voltage-dependent calcium channel subunit alpha-2/delta-1 (Homo sapiens, UniProt P54289).
Description: Binding affinity to calcium channel alpha2delta1 (unknown origin)
In the next assay the target is T2, Thromboxane-A synthase (Homo sapiens, UniProt P24557).
T2 sequence (P24557 whole entry): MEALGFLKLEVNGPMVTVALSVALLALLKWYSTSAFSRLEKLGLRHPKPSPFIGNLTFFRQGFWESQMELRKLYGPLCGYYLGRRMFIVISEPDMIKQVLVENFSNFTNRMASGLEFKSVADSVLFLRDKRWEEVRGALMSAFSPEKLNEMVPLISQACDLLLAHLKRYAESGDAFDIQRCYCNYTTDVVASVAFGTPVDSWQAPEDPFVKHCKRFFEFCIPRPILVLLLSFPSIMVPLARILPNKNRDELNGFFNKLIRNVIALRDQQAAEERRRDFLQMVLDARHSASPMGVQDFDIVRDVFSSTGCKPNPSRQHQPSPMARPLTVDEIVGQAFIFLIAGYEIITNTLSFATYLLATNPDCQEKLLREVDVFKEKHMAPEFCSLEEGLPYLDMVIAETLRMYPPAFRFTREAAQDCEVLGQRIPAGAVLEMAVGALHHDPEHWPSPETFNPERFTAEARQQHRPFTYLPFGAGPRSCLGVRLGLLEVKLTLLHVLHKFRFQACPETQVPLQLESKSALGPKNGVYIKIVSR

Amyloid-beta precursor protein, sequence (P05067 whole entry): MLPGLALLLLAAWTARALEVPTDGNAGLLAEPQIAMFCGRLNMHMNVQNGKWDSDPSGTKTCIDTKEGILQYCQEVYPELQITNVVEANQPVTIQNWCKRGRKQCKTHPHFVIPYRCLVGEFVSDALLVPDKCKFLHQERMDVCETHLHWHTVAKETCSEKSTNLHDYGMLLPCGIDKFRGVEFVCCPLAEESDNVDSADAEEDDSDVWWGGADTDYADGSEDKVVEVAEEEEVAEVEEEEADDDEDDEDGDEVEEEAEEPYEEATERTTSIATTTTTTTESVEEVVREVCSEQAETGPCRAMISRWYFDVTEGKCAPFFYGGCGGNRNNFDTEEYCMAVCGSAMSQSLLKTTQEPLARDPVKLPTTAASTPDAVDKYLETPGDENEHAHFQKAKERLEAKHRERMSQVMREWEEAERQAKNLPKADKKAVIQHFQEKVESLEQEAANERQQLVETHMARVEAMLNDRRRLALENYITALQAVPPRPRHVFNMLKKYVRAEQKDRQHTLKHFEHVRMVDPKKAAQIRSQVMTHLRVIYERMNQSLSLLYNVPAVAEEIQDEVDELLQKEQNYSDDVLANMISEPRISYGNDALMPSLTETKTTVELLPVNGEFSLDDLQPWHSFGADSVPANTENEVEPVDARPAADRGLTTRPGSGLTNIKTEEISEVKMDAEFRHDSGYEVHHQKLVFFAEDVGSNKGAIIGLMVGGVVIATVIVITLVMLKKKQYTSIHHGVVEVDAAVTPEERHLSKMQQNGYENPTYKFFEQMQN
Sodium-dependent serotonin transporter, sequence (P31645 whole entry): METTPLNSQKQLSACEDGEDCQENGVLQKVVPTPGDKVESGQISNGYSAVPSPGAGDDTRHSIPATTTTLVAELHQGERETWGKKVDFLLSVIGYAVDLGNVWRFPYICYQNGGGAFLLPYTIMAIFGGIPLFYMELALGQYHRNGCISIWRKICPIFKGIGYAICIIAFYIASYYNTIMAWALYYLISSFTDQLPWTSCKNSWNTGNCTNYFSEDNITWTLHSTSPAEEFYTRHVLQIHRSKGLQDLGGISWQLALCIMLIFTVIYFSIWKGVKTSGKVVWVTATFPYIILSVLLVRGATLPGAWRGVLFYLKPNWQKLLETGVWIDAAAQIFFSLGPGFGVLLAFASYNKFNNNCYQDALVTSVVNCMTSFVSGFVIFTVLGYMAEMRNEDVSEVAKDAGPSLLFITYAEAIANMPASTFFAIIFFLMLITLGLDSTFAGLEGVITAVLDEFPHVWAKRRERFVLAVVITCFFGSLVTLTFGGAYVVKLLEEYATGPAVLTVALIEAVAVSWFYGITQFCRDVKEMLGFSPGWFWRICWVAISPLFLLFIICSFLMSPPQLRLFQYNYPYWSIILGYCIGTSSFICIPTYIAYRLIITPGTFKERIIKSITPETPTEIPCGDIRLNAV
Acetylcholinesterase, sequence (P22303 whole entry): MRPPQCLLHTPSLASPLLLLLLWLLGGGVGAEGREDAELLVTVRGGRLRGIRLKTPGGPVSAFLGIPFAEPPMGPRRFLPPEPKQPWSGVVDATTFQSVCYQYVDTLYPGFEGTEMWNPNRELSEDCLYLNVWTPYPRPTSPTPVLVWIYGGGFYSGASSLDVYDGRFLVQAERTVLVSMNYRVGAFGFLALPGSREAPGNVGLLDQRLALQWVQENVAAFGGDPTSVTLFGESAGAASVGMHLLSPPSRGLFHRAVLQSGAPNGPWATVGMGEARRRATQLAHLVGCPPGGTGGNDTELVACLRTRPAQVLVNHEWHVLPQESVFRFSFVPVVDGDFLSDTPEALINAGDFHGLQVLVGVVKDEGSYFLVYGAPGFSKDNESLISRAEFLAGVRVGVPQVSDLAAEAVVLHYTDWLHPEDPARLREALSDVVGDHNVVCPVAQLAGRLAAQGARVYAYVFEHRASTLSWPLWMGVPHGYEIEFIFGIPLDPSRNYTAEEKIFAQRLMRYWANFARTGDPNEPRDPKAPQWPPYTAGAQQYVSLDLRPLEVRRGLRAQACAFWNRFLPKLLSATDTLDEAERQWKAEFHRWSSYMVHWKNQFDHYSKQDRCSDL
Voltage-dependent calcium channel subunit alpha-2/delta-1, sequence (P54289 25-956 limits assumed): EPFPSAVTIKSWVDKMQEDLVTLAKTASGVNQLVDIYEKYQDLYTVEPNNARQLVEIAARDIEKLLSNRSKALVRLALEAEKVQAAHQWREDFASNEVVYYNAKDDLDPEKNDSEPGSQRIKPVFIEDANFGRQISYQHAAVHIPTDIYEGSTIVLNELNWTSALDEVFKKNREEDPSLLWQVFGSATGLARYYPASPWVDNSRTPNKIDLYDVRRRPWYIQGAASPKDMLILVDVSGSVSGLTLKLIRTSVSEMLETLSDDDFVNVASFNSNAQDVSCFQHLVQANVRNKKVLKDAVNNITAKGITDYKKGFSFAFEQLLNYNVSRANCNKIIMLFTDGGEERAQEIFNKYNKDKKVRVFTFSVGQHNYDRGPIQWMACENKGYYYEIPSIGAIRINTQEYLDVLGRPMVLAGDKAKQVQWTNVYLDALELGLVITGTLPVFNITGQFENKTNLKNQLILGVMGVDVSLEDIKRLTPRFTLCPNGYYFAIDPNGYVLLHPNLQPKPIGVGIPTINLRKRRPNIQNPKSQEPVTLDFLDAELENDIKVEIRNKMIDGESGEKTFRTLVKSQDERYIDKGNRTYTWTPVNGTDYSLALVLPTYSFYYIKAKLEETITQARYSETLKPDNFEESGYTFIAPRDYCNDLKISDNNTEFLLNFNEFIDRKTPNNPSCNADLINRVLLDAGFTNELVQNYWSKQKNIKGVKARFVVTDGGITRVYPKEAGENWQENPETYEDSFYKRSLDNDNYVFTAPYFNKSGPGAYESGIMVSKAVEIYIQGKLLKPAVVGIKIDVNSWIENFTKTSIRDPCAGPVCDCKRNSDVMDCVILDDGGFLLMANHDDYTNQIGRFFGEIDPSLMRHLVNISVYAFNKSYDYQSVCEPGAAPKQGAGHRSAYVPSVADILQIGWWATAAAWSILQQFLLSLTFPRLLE
Voltage-dependent calcium channel subunit alpha-2/delta-1, sequence (P54289 957-1103 limits assumed): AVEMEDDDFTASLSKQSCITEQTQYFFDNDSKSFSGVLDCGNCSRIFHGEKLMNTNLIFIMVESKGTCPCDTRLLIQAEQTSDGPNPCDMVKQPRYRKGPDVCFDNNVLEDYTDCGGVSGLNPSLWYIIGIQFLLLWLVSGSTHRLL
Description for Acetylcholinesterase: Inhibition of AChE (unknown origin)
Description for Thromboxane-A synthase: Inhibition of TXA2 synthetase (unknown origin)
Description for Vitamin D3 receptor: Inhibition of VDR (unknown origin)

`Cc1c(O)c(=O)ccn1-c1ccc(OCCCN2CCCC2)cc1`: the IC50 (usually the concentration at which inhibition is half-maximal) in assay [1] was 2850 nM.
With `CC(/C=C/C(=O)NO)=C\C(C)C1CCC2/C(=C/C=C3CC(O)CC(O)C3)CCCC21C` (stereo not given), on Vitamin D3 receptor, the IC50 came out at 87 nM.
As to `CCN(C)C(=O)Oc1ccc(C(CCOc2ccc([N+](=O)[O-])cc2)NC)cc1` (stereo not given), the concentration for half-maximal inhibition (IC50) amounted to 42 nM in assay [2] and 101 nM on Acetylcholinesterase.
With `CCNc1ncc2c(n1)N1CCCC1CN(c1cccc(-c3noc(C)n3)c1)C2=O` (stereo not given), in assay [3], the Ki (usually a measure of affinity in units of concentration, obtained from inhibition or displacement) came to 11 nM.
For the molecule `O=C(O)CCCCO/N=C(/c1cccnc1)c1cccc(C(F)(F)F)c1` [RIDOGREL], the IC50 on Thromboxane-A synthase came out at 500 nM.
On to `CCN(C)C(=O)Oc1ccc2c(c1)C=CC(C)N(C)C2CCOc1ccc([N+](=O)[O-])cc1` (stereo not given), for which the values for the IC50 (in assay [2]; on Acetylcholinesterase) were 6 nM and 14 nM, respectively.
At Thromboxane-A synthase, `CCOC(=O)CCCCO/N=C(/c1cccnc1)c1cccc(CNS(=O)(=O)c2ccc(Cn3c(C)nc4ccccc43)cc2)c1` registered an IC50 of 4.7 nM.
Turning to `CCN(CC)CCCOc1ccc(-c2oc3ccccc3c2C(=O)c2ccc(C)cc2)cc1`, inhibition in assay [1] was half-maximal at 56000 nM (IC50).
